Source: article PMC8253140 (Drug Delivery, 2017)
Where two headings read alike, the source gives them in different places. Residues, ends and D or L forms follow the SMILES beside them. No end group written: not given here. *: point of attachment. Paclitaxel(2'-O-succinyl) = CC(=O)O[C@H]1C(=O)[C@@]2(C)[C@H]([C@H](OC(=O)c3ccccc3)[C@]3(O)C[C@H](OC(=O)[C@H](OC(=O)CCC(=O)*)[C@@H](NC(=O)c4ccccc4)c4ccccc4)C(C)=C1C3(C)C)[C@]1(OC(C)=O)CO[C@@H]1C[C@@H]2O

Tests used:
A549 cells [1] = assay: Cytotoxicity study, MTT colorimetric assay; settings: for IC50 value as % of the IC50 of PTX / cell viability: 24 h; for IC50 value as % of the IC50 of PTX: GraphPad Prism, p < 0.01 vs PTX
Method: The inhibitory activities of the drug samples on cell growth were evaluated using a 3-(4,5-dimethylthiazol-2-yl)-2,5-diphenyltetrazolium bromide (MTT) colorimetric assay. A549 and A549T cells were harvested by trypsinization and resuspended at a concentration of 2 × 10^4 cells/mL in fresh culture medium. Then, the cells were seeded at a density of 5000 cells per well in 96-well plates. […] The concentration of the drugs ranged from 0.1 μM to 100 μM. After 24 h of incubation, the drug-containing media were abandoned, and 20 μL of MTT (5 mg/mL) solution was added to each well. The plate was incubated for an additional 4 h, and then, […] of DMSO was added to each well to dissolve any formed purple formazan crystals. The plates were vigorously shaken before measuring the relative color intensity. The absorbance at 570 nm of each well was measured with a plate reader.

A549T cells [2] = assay: Cytotoxicity study, MTT colorimetric assay; assay type: cell-based; settings: for IC50 value as % of the IC50 of PTX: GraphPad Prism, p < 0.01 vs PTX
Method: The inhibitory activities of the drug samples on cell growth were evaluated using a 3-(4,5-dimethylthiazol-2-yl)-2,5-diphenyltetrazolium bromide (MTT) colorimetric assay. A549 and A549T cells were harvested by trypsinization and resuspended at a concentration of 2 × 10^4 cells/mL in fresh culture medium. Then, the cells were seeded at a density of 5000 cells per well in 96-well plates. […] The concentration of the drugs ranged from 0.1 μM to 100 μM. After 24 h of incubation, the drug-containing media were abandoned, and 20 μL of MTT (5 mg/mL) solution was added to each well. The plate was incubated for an additional 4 h, and then, 200 mL of DMSO was added to each well to dissolve any formed purple formazan crystals. The plates were vigorously shaken before measuring the relative color intensity. The absorbance at 570 nm of each well was measured with a plate reader.

A549 cells [3] = assay: Cell apoptosis detection, annexin V-FITC/PI flow cytometry; assay type: cell-based; settings: 10 μM, 48 h, triplicate
Method: (§1) Cell apoptosis was determined by an annexin V-FITC/PI assay. The externalization of phosphatidylserine, a result of early stage apoptosis, was detected by FITC-annexin V protein staining, and the membrane damage due to late-stage apoptosis was detected by the binding of PI to nuclear DNA. Briefly, 2 × 10^5 A549 and A549T cells were plated in 6-well plates and incubated for 24 h. After exposure to the different drugs at a concentration of 10 μM for 48 h, the cells were harvested by trypsinization, washed in PBS twice and incubated in the dark for 10 min at room temperature in 500 μL of binding buffer containing annexin V-FITC (1 μg/mL) and PI (1 μg/mL). The cells were immediately analyzed by flow cytometry (Becton Dickinson, Franklin Lakes, NJ). The fluorescence intensity of annexin V-FITC was measured at an excitation/emission wavelength of 488/530 nm and that of PI was measured at an excitation/emission wavelength of 488/617 nm. Approximately 10 000 cells were analyzed in each of the samples. Each assay was repeated in triplicate.

A549T cells [4] = assay: as above; assay type: cell-based; settings: 10 μM, 48 h, triplicate
Method: as §1

A549T cells [5] = assay type: cell-based; settings: 5 μM, 48 h, triplicate
Method: (§2) After that, the cells were harvested by trypsinization, washed in PBS twice, and fixed in 70% cold ethanol for 24 h at 4 °C. The fixed cells were washed in cold PBS and then resuspended in 0.5 mL of PBS containing 50 μg/mL PI, 0.1% Triton-X-100, 0.1% sodium citrate, and 100 μg/mL RNase. After incubation at 4 °C in the dark for 30 min, the fluorescence-activated cells were sorted. The cellular DNA content was analyzed by flow cytometry (Becton Dickinson, Franklin Lakes, NJ). Each analysis contained at least 10 000 cells. […] The percentages of cells in different cell cycle phases were then recorded. Each experiment was performed in triplicate, and the results were expressed as the mean ± SD.

A549 tumor = assay type: in vivo, BALB/c nude mice; settings: A549 tumor-bearing nude mice, 1000 μM, 100 μL, peritumoral injection three times over 8 d; for decrease of tumor volume compared with PTX: from 22 to 30 d; for decrease of tumor volume compared with PTX / tumor inhibition rate: six mice per group; for tumor inhibition rate: tumors dissected and weighed after 24 or 30 d
Source text: (§3) The protocol to evaluate the in vivo antitumor efficacy of the PTX-CPP conjugates was approved by the ethics committee of Fudan University. Four-week-old female BALB/c nude mice were purchased and housed in the Animal Care Facilities in the School of Pharmacy, Fudan University. BALB/c mice bearing subcutaneous tumors were used as an animal model for the evaluation of the anticancer activities of PTX-LMWP and PTX-TAT. The subcutaneous tumor xenograft model was established by inoculating 2 × 10^6 A549 or A549T cells (in 100 μL of cell culture medium) into the subcutaneous tissue of the armpit of the right anterior limb (Gu et al., [2014]). Tumor size was measured with Vernier calipers for the largest (length) and smallest (width) superficial visible diameters of the protruding tumor mass through the skin. Tumor volumes were calculated according to the following formula: volume = 0.52 × W^2×L, where W and L represent the width and the length, respectively (Lee et al., [2011]). The drugs were administered 2 weeks after tumor implantation, when the size of the tumors reached approximately 100–150 mm^3. […] Each experimental group contained six mice. The mice were treated (100 μL volume) three times over 8 d via peritumoral injection. Tumor volumes were measured at 2-d intervals. At the end of the experiment, the mice were sacrificed, and necropsies were performed. The tumors were removed, weighed and fixed with formalin.

A549T tumor = assay type: in vivo, BALB/c nude mice; settings: 1000 μM
Source text: as §3

A549 cells [6] = assay: Cellular uptake assay (intracellular drug accumulation); assay type: cell-based; settings: 20 μM, incubation 15 min to 4 h, UPLC
Method: The cellular uptake experiment was implemented basing on the protocol designed by Meng with some modifications (Meng et al., [2011]). Briefly, A549 and A549T cells were cultivated in chambered 24-well plates with 5% CO2 at 37 °C for 48 h. Then, the adherent cells were washed twice with PBS. Each of the three drugs was diluted in cell medium at concentrations of 10 μM and 20 μM and added to the chambers. The cells were incubated for 2 h and washed four times with PBS after incubation. After that, the cells were scraped from the wells and quantitatively transferred to Eppendorf centrifuge tubes. The resulting cell/saline suspensions were sonicated for 20 cycles of 2 s each with 2 s of rest between each cycle using a probe sonicator. The lysed cell solution was centrifuged at 7000 g for 30 min at 4 °C. Then, 100 μL of the supernatant was withdrawn carefully and tested with UPLC (BEH C18, 1.7 μm, 2.1 × 50 mm). The flow rate was 0.3 mL/min, and the mobile phase consisted of 55% solvent A (PBS, pH = 5) and 45% solvent B (acetonitrile). To further test the change in cellular uptake against incubation time, the drugs (20 μM) were added to the cells, and the cells were then incubated for different times, ranging from 15 min to 4 h. The other steps of the experiment were performed as described above.

A549T cells [7] = assay: Mitochondrial membrane potential (Δψm) determination, JC-1 flow cytometry; assay type: cell-based; settings: 10 μM, 48 h, triplicate
Method: Changes in the mitochondrial membrane potential (Δψm) were detected using JC-1 and analyzed with flow cytometry. Briefly, A549 and A549T cells were seeded at a density of 1 × 10^5 cells/mL in 6-well plates and exposed to the drugs (10 μM) for 48 h. The control experiments were performed by adding only culture medium. Then, the cells were harvested by trypsinization, washed in PBS twice, incubated with JC-1 ([…]) at 37 °C for 10 min in the dark, and finally analyzed by flow cytometry (Becton Dickinson, Franklin Lakes, NJ). Each assay was repeated in triplicate. JC-1 accumulates in mitochondria that have a high membrane potential and then dimerizes due to the high local concentrations achieved. Dimerized JC-1 emits red fluorescence, while monomeric JC-1 emits green fluorescence. The results are expressed as a ratio of red to green fluorescence.

A549 cells [8] = assay: Cell-cycle analysis, PI flow cytometry; assay type: cell-based; settings: 5 μM, 48 h, triplicate
Method: as §2

[9] = A549T tumor-bearing nude mice, 100 μL, peritumoral injection three times over 8 d

Compound | IC50 value as % of the IC50 of PTX (A549 cells [1]; A549 cells, MTT) [%] | IC50 value as % of the IC50 of PTX (A549T cells [2]; A549T cells, MTT, 24 h) [%] | percentage of late apoptotic cells (PI+/annexin V+) (A549 cells [3]) [%] | percentage of early apoptotic cells (PI−/annexin V+) (A549T cells [4]) [%] | percentage of late apoptotic cells (PI+/annexin V+) (A549T cells [4]) [%] | effect on cell-cycle distribution (A549T cells [5]) | decrease of tumor volume compared with PTX (A549 tumor) | tumor inhibition rate (A549 tumor) [%] | tumor growth (tumor volume) compared with the control (A549T tumor; [9]) | tumor inhibition rate (A549T tumor; mouse, in vivo) [%] | other results
CC(=O)O[C@H]1C(=O)[C@@]2(C)[C@H]([C@H](OC(=O)c3ccccc3)[C@]3(O)C[C@H](OC(=O)[C@H](OC(=O)CCC(=O)NCCN4C(=O)CC(SC[C@H](N)C(=O)NCC(=O)NCC(=O)NCC(=O)N[C@@H](Cc5ccc(O)cc5)C(=O)NCC(=O)N[C@@H](CCCNC(=N)N)C(=O)N[C@@H](CCCCN)C(=O)N[C@@H](CCCCN)C(=O)N[C@@H](CCCNC(=N)N)C(=O)N[C@@H](CCCNC(=N)N)C(=O)N[C@@H](CCC(N)=O)C(=O)N[C@@H](CCCNC(=N)N)C(=O)N[C@@H](CCCNC(=N)N)C(=O)N[C@@H](CCCNC(=N)N)C(=O)O)C4=O)[C@@H](NC(=O)c4ccccc4)c4ccccc4)C(C)=C1C3(C)C)[C@]1(OC(C)=O)CO[C@@H]1C[C@@H]2O (stereo partly shown) [PTX-TAT] | 47.2 | 39.5 | 72.57 | 23.15 | 54.20 | higher tetraploid-G2/M phase arrest than those incubated with PTX | 1.51–1.77 fold | 63.32 | considerable antitumor effect | 42.47 | 
CC(=O)O[C@H]1C(=O)[C@@]2(C)[C@H]([C@H](OC(=O)c3ccccc3)[C@]3(O)C[C@H](OC(=O)[C@H](OC(=O)CCC(=O)N[C@H](C(=O)N[C@@H](CO)C(=O)N[C@@H](CCCNC(=N)N)C(=O)N[C@@H](CCCNC(=N)N)C(=O)N[C@@H](CCCNC(=N)N)C(=O)N[C@@H](CCCNC(=N)N)C(=O)N[C@@H](CCCNC(=N)N)C(=O)N[C@@H](CCCNC(=N)N)C(=O)NCC(=O)NCC(=O)N[C@@H](CCCNC(=N)N)C(=O)N[C@@H](CCCNC(=N)N)C(=O)N[C@@H](CCCNC(=N)N)C(=O)N[C@@H](CCCNC(=N)N)C(=O)O)C(C)C)[C@@H](NC(=O)c4ccccc4)c4ccccc4)C(C)=C1C3(C)C)[C@]1(OC(C)=O)CO[C@@H]1C[C@@H]2O [PTX-LMWP] ({Paclitaxel(2'-O-succinyl)}-VSRRRRRRGGRRRR-OH; N-terminus and C-terminus assumed) | 33.5 | 21.5 | 84.03 | 38.10 | 55.75 | limited generation of tetraploids but a large number of cells in diploid-S phase cell-cycle arrest | 1.45–1.80 fold | 62.92 | considerable antitumor effect | 43.13 | cellular uptake against incubation time (A549 cells [6]): stronger than that of PTX-TAT; IC50 value compared with PTX-TAT (A549T cells [2]; A549T cells, MTT, p < 0.01): remarkably lower than that of PTX-TAT; effect on mitochondrial membrane potential (Δψm), ratio of red to green JC-1 fluorescence (A549T cells [7]): significant breakdown of the Δψm compared with the PTX-TAT treatment
VSRRRRRRGGRRRR [LMWP, reference compound] |  |  |  |  |  |  |  |  |  |  | toxicity of the CPPs alone (cell viability) (A549 cells [1]): No harmful effect; toxicity of the CPPs alone (cell viability) (A549T cells [2]): No harmful effect
N=C(N)NCCC[C@H](NC(=O)[C@H](CCCNC(=N)N)NC(=O)[C@H](CCCNC(=N)N)NC(=O)[C@H](CCC(N)=O)NC(=O)[C@H](CCCNC(=N)N)NC(=O)[C@H](CCCNC(=N)N)NC(=O)[C@H](CCCCN)NC(=O)[C@H](CCCCN)NC(=O)[C@H](CCCNC(=N)N)NC(=O)CNC(=O)[C@H](Cc1ccc(O)cc1)NC(=O)CNC(=O)CNC(=O)CNC(=O)[C@@H](N)CS)C(=O)O [TAT, reference compound] |  |  |  |  |  |  |  |  |  |  | toxicity of the CPPs alone (cell viability) (A549 cells [1]; A549 cells, MTT, same molar concentrations as PTX): No harmful effect; toxicity of the CPPs alone (cell viability) (A549T cells [2]; A549T cells, MTT, same molar concentrations as PTX): No harmful effect
CC(=O)O[C@H]1C(=O)[C@@]2(C)[C@H]([C@H](OC(=O)c3ccccc3)[C@]3(O)C[C@H](OC(=O)[C@H](O)[C@@H](NC(=O)c4ccccc4)c4ccccc4)C(C)=C1C3(C)C)[C@]1(OC(C)=O)CO[C@@H]1C[C@@H]2O [PTX, Paclitaxel, reference compound] |  |  | 13.03 |  |  | a large number of A549T cells were induced into tetraploids |  | 31.06 | no significant difference in the tumor volumes between the control and PTX groups |  | cell viability (A549 cells [1]; A549 cells, MTT, concentration below 1 nM): higher than 80%; cell viability (A549 cells [1]; A549 cells, MTT, concentrations from 100 nM to 100 000 nM): 40%; effect on cell viability (A549T cells [2]; A549T cells, MTT, 24 h, concentrations below 1000 nM): no effect on cell viability; effect on cell-cycle distribution (A549 cells [8]): substantially increased the percentages of cells in G2/M phase cell-cycle arrest; tumor growth (tumor volume) compared with the control (A549 tumor): significant antitumor effect; tumor inhibition rate (A549T tumor; A549T tumor-bearing nude mice, 100 μL, peritumoral injection three times over 8 d, tumors dissected and weighed after 24 or 30 d, six mice per group): 11.0%
